Tests used:
[1] = finite-element (COMSOL) simulation of local gentamicin delivery to a retracted surgical wound; conditions: calculated model parameter, adipose wound tissue
Text: In order to better understand the differences between systemic delivery and local delivery of therapeutic agents, a finite-element analysis software package (COMSOL) was used to generate a three dimensional (3D) model of a retracted surgical wound with a 12 cm incision. […] The 3D model shown in FIG. 23 was modeled in a Computer Aided Design (CAD) package (Solidworks) based on the geometry of the device and the retracted wound tissue in a cadaver.
Gentamicin, a member of the aminoglycoside family, was used as the antibiotic in the model due to its prevalence in clinical use to combat the enteric, gram-negative bacteria that cause wound infections. A concentration of 240 mg/L was delivered during the simulated 4 hr surgery based on standard clinical protocols.
where Φ, D, and C are the particle flux, diffusion coefficient, and concentration, respectively. […]
The diffusion coefficients of various solutes and solvents have been experimentally obtained and published. However, for solute-solvent combinations that have not been published or experimentally determined, the molecular weight of a given solute may be correlated to the diffusion coefficient in the same solvent using a logarithmic relation. […]
The simulation was run for four hours to mimic a standard colorectal procedure and the antibiotic flux and tissue concentration was recorded at each time step.

E. coli [2] = assay: minimum inhibitory concentration of gentamicin, E. coli; format: cell-based
Text: The extent of absorption of a fluid or solute into the tissue may be a function of the rate of fluid delivery, concentration of solutes (if any) in the delivered fluid, physical characteristics of the solutes (if any), the porosity of the tissue, tortuousity of the tissue, systemic absorption via the capillary bed and subsequent renal clearance, and/or the time period over which the surgical device and delivered fluid are in contact with the wound tissues. […] The minimum inhibitory concentration (16 mg/L) was reached are the wound surface in about 3 minutes of fluid delivery. […] The surgical device may thus be able to reduce microbial growth in wounds even after being removed, which may result in a lower risk of developing a surgical site infection.
The surgical device may be used to deliver a therapeutic fluid to a wound tissue to maintain a constant therapeutic concentration in the tissue. The therapeutic concentration in the tissue may be maintained for a portion of or the entire duration of the surgical procedure. The concentration of the therapeutic agent (e.g. antibiotic) may be maintained within a pre-determined range. The pre-determined concentration may depend on the type of therapeutic used as described herein. […] The therapeutic concentration may be at or above the minimum inhibitory concentration. […]

E. coli [3] = assay: acute abdominal surgical model with E. coli contamination, quantitative wound tissue culture; format: in vivo, pigs; conditions: E-F group
Method: In the gentamicin group, the degree of systemic absorption of the antibiotic was quantified.
Seven female adult pigs weighing 50-70 kg were placed under general anesthesia and monitored for the duration of the experimental protocol. The abdomen was shaved, sterilely prepped with chlorhexidine solution, and draped under sterile conditions. A 12-cm periumbilical midline incision was made and the abdominal cavity was entered. After approximately 2.5 hours of wound retraction to simulate a prototypical length of time for colonic dissection, a gentamicin-sensitive E. coli suspension at a standardized concentration of 10^9 colony-forming units (CFU) in 10 mL normal saline was dripped onto the central colon. E. coli is classified as an enteric bacteria species. […]
FIGS. 28A-28B show the locations at which two swab samples were taken just prior to device removal (e.g. at Time 1). […] Colonies were identified as E. coli, enumerated, and recorded, and the results for serial dilutions were internally validated. […] Tissue culture results were expressed as colony-forming units (CFU) per gram. […]
Quantitative culture results were expressed in mean±standard deviation (SD). Statistical comparisons of quantitative culture results were performed using the Student's t-test. Significance was determined based on a value of p<0.05.

[4] = intravenous administration, 240 mg; cited from earlier work
[5] = tested on: gram-negative bacteria present in colorectal surgeries; conditions: required to neutralize gram-negative bacteria present in colorectal surgeries; cited from earlier work
E. coli [6] = conditions: cited from earlier work
[7] = serum and wound tissue gentamicin concentration by ELISA after local delivery through the surgical device; conditions: E-F group
Method: The 7 pigs were divided into two groups each: 1. Control (n=1) where no device was used and a sham procedure was performed. 2. “Experimental-No Fluid” (E-NF) group (n=3) where the surgical device was used without any irrigation delivered through the device in order to mimic conditions with other non-irrigating surgical retractors. 3. […] The irrigation fluid was delivered via gravity drainage from an IV bag hung on a pole at a height of 6 feet, and removal of fluid from the device was achieved via wall suction into a standard surgical canister. Both the fluid delivery and fluid removal mechanisms were integrated into the surgical device via separate tubing connections. The total time of irrigation averaged approximately 4 hours.
Experimental data was collected at two time points. Time 1 was after 4 hours of simulated surgery and/or irrigation and at the time of device removal. Time 2 was 4 hours after wound closure (e.g. at the time of wound reopening).
In the E-F group, peripheral blood samples were drawn by the anesthetists at Times 1 and 2. The blood was collected in serum-separator tubes and centrifuged. […] Two 4 mm×8 mm punch biopsies at each time point were taken, homogenized, and diluted in 1 mL phosphate buffered saline (PBS). The sample was centrifuged, and the supernatant was isolated for ELISA analysis.

Substance: gentamicin
- Effective Diffusion Coefficient [1]: 1.88E−6 cm^2/s
- delivered fluid concentration (240 mg/L) relative to typical minimum inhibitory concentration of E. coli (E. coli [2]): about 60 time greater
- quantitative wound culture (E. coli) in tissue sample (E. coli [3]; 240 mg gentamicin sulfate in 1 L saline through device, Time 1 (device removal)): 1.25±1.55×10^2 CFU/gm
- quantitative wound culture (E. coli) in tissue sample (E. coli [3]; Time 2 (4 hours after wound closure)): 2.08±3.01×10^2 CFU/gm
- peak tissue concentration relative to minimum inhibitory concentration [4]: 4.5 times
- time of peak tissue concentration after administration [4]: roughly 20 minutes
- minimum inhibitory concentration (MIC) [5]: 0.003 mol/m^3
- minimum inhibitory concentration (E. coli [6]): 16 µg/mL
- gentamicin concentration at the wound margins (tissue) ([7]; Time 1, punch biopsies of subcutaneous fat): 0.97 ± 0.33 mg/kg
- gentamicin concentration at the wound margins (tissue) ([7]; Time 2, punch biopsies of subcutaneous fat): 0.60 ± 0.37 mg/kg

Reference: US20170128059A1, “METHODS AND APPARATUS FOR PREVENTION OF SURGICAL SITE INFECTIONS” (priority 2015, published 2017)
